Assays:
Type in all cases: cell-based
E. coli DH5α = assay: Antibacterial activity: MIC and growth curve against E. coli DH5α in 96-well plate; conditions: minimal inhibitory concentration against E. coli DH5α; 96-well plate, 5×10^5 CFU/mL, 37° C., judged after 8 h
In short: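 Log-phase bacteria (OD600 ~0.5) resuspended in LB at 5×10^5 CFU/mL, exposed to recombinant protein at 50, 25, 12.5 μg/mL final in triplicate, 37 °C shaking at 175 rpm. OD600 read every 30 min; MIC is lowest concentration showing no growth.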

E. coli BL21 = assay: MIC against Gram-negative bacteria: E. coli BL21; conditions: for MIC against E. coli BL21 / MIC (μg/mL) E. coli BL21: 5×10^5 CFU/mL
In short: (§1)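 Bacteria grown in LB at 37° C to McFarland 0.5, resuspended and seeded at 5×10^5 CFU/mL in 96-well plates. Purified human EGF-domain proteins two-fold serially diluted, triplicate wells; cultured at 37° C, shaking 175 rpm. MIC = lowest protein concentration with no growth.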

Pseudomonas aeruginosa = assay: MIC against Gram-negative bacteria: Pseudomonas aeruginosa; conditions: for MIC against P. aeruginosa / MIC (μg/mL) P. aeruginosa: 5×10^5 CFU/mL
In short: as §1

Klebsiella pneumonia = assay: MIC against Gram-negative bacteria: Klebsiella pneumonia; conditions: for MIC against K. pneumonia / MIC (μg/mL) K. pneumonia: 5×10^5 CFU/mL
In short: as §1

Enterobacter cloacae = assay: MIC against Gram-negative bacteria: Enterobacter cloacae; conditions: for MIC against E. cloacae / MIC (μg/mL) E. cloacae: 5×10^5 CFU/mL
In short: as §1

Aeromonas hydrophila = assay: MIC against Gram-negative bacteria: Aeromonas hydrophila; conditions: for MIC against A. hydrophila / MIC (μg/mL) A. hydrophila: 5×10^5 CFU/mL
In short: as §1

Citrobacter diversus = assay: MIC against Gram-negative bacteria: Citrobacter diversus; conditions: for MIC against C. diversus / MIC (μg/mL) C. diversus: 5×10^5 CFU/mL
In short: as §1

Moraxella catarrhalis = assay: MIC against Gram-negative bacteria: Moraxella catarrhalis; conditions: for MIC against M. catarrhalis / MIC (μg/mL) M. catarrhalis: 5×10^5 CFU/mL
In short: as §1

Proteus mirabilis = assay: MIC against Gram-negative bacteria: Proteus mirabilis; conditions: for MIC against P. mirabilis / MIC (μg/mL) P. mirabilis: 5×10^5 CFU/mL
In short: as §1

Proteus vulgaris = assay: MIC against Gram-negative bacteria: Proteus vulgaris; conditions: for MIC against P. vulgaris / MIC (μg/mL) P. vulgaris: 5×10^5 CFU/mL
In short: as §1

Serratia marcescens = assay: MIC against Gram-negative bacteria: Serratia marcescens; conditions: for MIC against S. marcescens / MIC (μg/mL) S. marcescens: 5×10^5 CFU/mL
In short: as §1

[1] = E. coli BL21, 10 h cultivation at 37° C.
[2] = P. aeruginosa, 10 h cultivation at 37° C.
[3] = K. pneumonia, 10 h cultivation at 37° C.
[4] = E. cloacae, 10 h cultivation at 37° C.
[5] = A. hydrophila, 10 h cultivation at 37° C.
[6] = C. diversus, 10 h cultivation at 37° C.
[7] = M. catarrhalis, 10 h cultivation at 37° C.
[8] = P. mirabilis, 10 h cultivation at 37° C.
[9] = P. vulgaris, 10 h cultivation at 37° C.
[10] = S. marcescens, 10 h cultivation at 37° C.

PRT1211 (LSPYCKDEPCKNGGTCFDSLDGAVCQCDSGFRGERCQ; listed as Homo sapiens)
MIC (E. coli DH5α): 50 µg/mL | MIC against E. coli BL21 (E. coli BL21; E. coli BL21, 96-well plate, 37° C., 10 h): 25 µg/mL | MIC against P. aeruginosa (Pseudomonas aeruginosa; Pseudomonas aeruginosa, 96-well plate, 37° C., 10 h): 12.5 µg/mL | MIC against K. pneumonia (Klebsiella pneumonia; Klebsiella pneumonia, 96-well plate, 37° C., 10 h): 25 µg/mL | MIC against E. cloacae (Enterobacter cloacae; Enterobacter cloacae, 96-well plate, 37° C., 10 h): 50 µg/mL | MIC against A. hydrophila (Aeromonas hydrophila; Aeromonas hydrophila, 96-well plate, 37° C., 10 h): 25 µg/mL | MIC against C. diversus (Citrobacter diversus; Citrobacter diversus, 96-well plate, 37° C., 10 h): 12.5 µg/mL | MIC against M. catarrhalis (Moraxella catarrhalis; Moraxella catarrhalis, 96-well plate, 37° C., 10 h): 25 µg/mL | MIC against P. mirabilis (Proteus mirabilis; Proteus mirabilis, 96-well plate, 37° C., 10 h): 50 µg/mL | MIC against P. vulgaris (Proteus vulgaris; Proteus vulgaris, 96-well plate, 37° C., 10 h): 25 µg/mL | MIC against S. marcescens (Serratia marcescens; Serratia marcescens, 96-well plate, 37° C., 10 h): 12.5 µg/mL

PRT904 (NTPDCTESSCFNGGTCVDGINSFTCLCPPGFTGSYCQ; listed as Homo sapiens)
MIC (E. coli DH5α): 50 µg/mL | MIC (E. coli BL21; [1]): 12.5 µg/mL | MIC (Pseudomonas aeruginosa; [2]): 25 µg/mL | MIC (Klebsiella pneumonia; [3]): 12.5 µg/mL | MIC (Enterobacter cloacae; [4]): 12.5 µg/mL | MIC (Aeromonas hydrophila; [5]): 25 µg/mL | MIC (Citrobacter diversus; [6]): 12.5 µg/mL | MIC (Moraxella catarrhalis; [7]): 25 µg/mL | MIC (Proteus mirabilis; [8]): 12.5 µg/mL | MIC (Proteus vulgaris; [9]): 25 µg/mL | MIC (Serratia marcescens; [10]): 25 µg/mL

PRT1449 (ACAPGHFGADCRLQCQCQNGGTCDRFSGCVCPSGWHGVHCE; listed as Homo sapiens)
MIC (E. coli DH5α): 50 µg/mL | MIC against E. coli BL21 (E. coli BL21; [1]): 25 µg/mL | MIC against P. aeruginosa (Pseudomonas aeruginosa; Pseudomonas aeruginosa, 10 h cultivation at 37° C.): 12.5 µg/mL | MIC against K. pneumonia (Klebsiella pneumonia; Klebsiella pneumonia, 10 h cultivation at 37° C.): 50 µg/mL | MIC against E. cloacae (Enterobacter cloacae; Enterobacter cloacae, 10 h cultivation at 37° C.): 12.5 µg/mL | MIC against A. hydrophila (Aeromonas hydrophila; Aeromonas hydrophila, 10 h cultivation at 37° C.): 25 µg/mL | MIC against C. diversus (Citrobacter diversus; Citrobacter diversus, 10 h cultivation at 37° C.): 50 µg/mL | MIC against M. catarrhalis (Moraxella catarrhalis; Moraxella catarrhalis, 10 h cultivation at 37° C.): 12.5 µg/mL | MIC against P. mirabilis (Proteus mirabilis; Proteus mirabilis, 10 h cultivation at 37° C.): 50 µg/mL | MIC against P. vulgaris (Proteus vulgaris; Proteus vulgaris, 10 h cultivation at 37° C.): 12.5 µg/mL | MIC against S. marcescens (Serratia marcescens; Serratia marcescens, 10 h cultivation at 37° C.): 50 µg/mL

PRT485 (QADPCKFLACGEFAQCVKNERTEEAECRCKPGYDSQGSL; listed as Homo sapiens)
MIC (E. coli DH5α): 50 µg/mL | MIC against E. coli BL21 (E. coli BL21; 96-well plate, 37° C., 10 h): 12.5 µg/mL | MIC against P. aeruginosa (Pseudomonas aeruginosa; 96-well plate, 37° C., 10 h): 50 µg/mL | MIC against K. pneumonia (Klebsiella pneumonia; 96-well plate, 37° C., 10 h): 25 µg/mL | MIC against E. cloacae (Enterobacter cloacae; 96-well plate, 37° C., 10 h): 12.5 µg/mL | MIC against A. hydrophila (Aeromonas hydrophila; 96-well plate, 37° C., 10 h): 25 µg/mL | MIC against C. diversus (Citrobacter diversus; 96-well plate, 37° C., 10 h): 50 µg/mL | MIC against M. catarrhalis (Moraxella catarrhalis; 96-well plate, 37° C., 10 h): 25 µg/mL | MIC against P. mirabilis (Proteus mirabilis; 96-well plate, 37° C., 10 h): 12.5 µg/mL | MIC against P. vulgaris (Proteus vulgaris; 96-well plate, 37° C., 10 h): 25 µg/mL | MIC against S. marcescens (Serratia marcescens; 96-well plate, 37° C., 10 h): 50 µg/mL

PRT752 (TAHMCSTLEHNCAHFCINIPGSYVCRCKQGYILNSDQTTCR; listed as Homo sapiens)
MIC (E. coli DH5α): 50 µg/mL | MIC (μg/mL) E. coli BL21 (E. coli BL21; [1]): 25 µg/mL | MIC (μg/mL) P. aeruginosa (Pseudomonas aeruginosa; [2]): 12.5 µg/mL | MIC (μg/mL) K. pneumonia (Klebsiella pneumonia; [3]): 12.5 µg/mL | MIC (μg/mL) E. cloacae (Enterobacter cloacae; [4]): 12.5 µg/mL | MIC (μg/mL) A. hydrophila (Aeromonas hydrophila; [5]): 50 µg/mL | MIC (μg/mL) C. diversus (Citrobacter diversus; [6]): 12.5 µg/mL | MIC (μg/mL) M. catarrhalis (Moraxella catarrhalis; [7]): 25 µg/mL | MIC (μg/mL) P. mirabilis (Proteus mirabilis; [8]): 50 µg/mL | MIC (μg/mL) P. vulgaris (Proteus vulgaris; [9]): 25 µg/mL | MIC (μg/mL) S. marcescens (Serratia marcescens; [10]): 12.5 µg/mL

PRT782 (AERCDCSHADGCHPTTGHCRCLPGWSGVHCD; listed as Homo sapiens)
MIC (E. coli DH5α): 50 µg/mL | MIC (μg/mL) E. coli BL21 (E. coli BL21; [1]): 25 µg/mL | MIC (μg/mL) P. aeruginosa (Pseudomonas aeruginosa; [2]): 12.5 µg/mL | MIC (μg/mL) K. pneumonia (Klebsiella pneumonia; [3]): 12.5 µg/mL | MIC (μg/mL) E. cloacae (Enterobacter cloacae; [4]): 12.5 µg/mL | MIC (μg/mL) A. hydrophila (Aeromonas hydrophila; [5]): 12.5 µg/mL | MIC (μg/mL) C. diversus (Citrobacter diversus; [6]): 12.5 µg/mL | MIC (μg/mL) M. catarrhalis (Moraxella catarrhalis; [7]): 12.5 µg/mL | MIC (μg/mL) P. mirabilis (Proteus mirabilis; [8]): 25 µg/mL | MIC (μg/mL) P. vulgaris (Proteus vulgaris; [9]): 12.5 µg/mL | MIC (μg/mL) S. marcescens (Serratia marcescens; [10]): 50 µg/mL

PRT160 (KIDYCILDPCRNGATCISSLSGFTCQCPEGYFGSACE; listed as Homo sapiens)
MIC (E. coli DH5α): 12.5 µg/mL | MIC (μg/mL) E. coli BL21 (E. coli BL21; [1]): 25 µg/mL | MIC (μg/mL) P. aeruginosa (Pseudomonas aeruginosa; [2]): 12.5 µg/mL | MIC (μg/mL) K. pneumonia (Klebsiella pneumonia; [3]): 25 µg/mL | MIC (μg/mL) E. cloacae (Enterobacter cloacae; [4]): 25 µg/mL | MIC (μg/mL) A. hydrophila (Aeromonas hydrophila; [5]): 25 µg/mL | MIC (μg/mL) C. diversus (Citrobacter diversus; [6]): 12.5 µg/mL | MIC (μg/mL) M. catarrhalis (Moraxella catarrhalis; [7]): 25 µg/mL | MIC (μg/mL) P. mirabilis (Proteus mirabilis; [8]): 12.5 µg/mL | MIC (μg/mL) P. vulgaris (Proteus vulgaris; [9]): 25 µg/mL | MIC (μg/mL) S. marcescens (Serratia marcescens; [10]): 12.5 µg/mL

Source: patent publication US9833497B2, “Human originated EGF domain proteins and use of the same” (CHENGDU SOURCEBIO LIMITED-LIABILITY COMPANY, priority 2013, dated 2017)
